Assay results as given in patent CN113813388A, “一种眼用纳米胶束及其制备方法和应用” (Zhejiang University ZJU, priority 2021, dated 2021).

Assays:
[1] = after topical ocular administration; cited from earlier work
[2] = H2O2 (ROS) scavenging assay with hydrogen peroxide detection kit (S0038, Beyotime); assay type: biochemical; settings: within 15 min; Tempo concentration 100 μg/mL-1; 500 μM H2O2 in 0.01 M PBS pH 7.4

**Q.** For `CC1(C)CCCC(C)(C)N1[O]` [Tempo], which “rapidly cleared, time after application” value [1] is on record?
**A.** 15 to 30 s

**Q.** And the “eliminated H2O2” value [2]?
**A.** 78.9%
